Source: US8772446B2, “Bifunctional chelating agents” (Nordion (Canada) Inc., priority 2010, dated 2014)

How the values were obtained:
[1] = Serum stability studies done in vitro (^67Ga); format: in vitro ADME
[2] = Biodistribution in female ICR mice; format: in vivo
Method: The protocol used in the animal studies was approved by the Institutional Animal Care Committee of the University of British Columbia and was performed in accordance with the Canadian Council on Animal Care Guidelines. A total of 16 female ICR (20-30 g) mice were used for the animal study of each of the three compounds. ^67Ga(dedpa)^+, ^67Ga(66)^+, or ^67Ga(69)^+ was prepared as described above and then diluted in phosphate buffered saline to a concentration of 100 μCi/mL. Each mouse was i.v. injected with ˜10 μCi (100 μL) of the ^67Ga complex and then sacrificed by CO2 inhalation at 30 min, 1 h, 2 h, or 4 h after injection (n=4 at each time point). Blood was collected by cardiac puncture and plasma was separated from whole blood by centrifuging (2500 rpm, 15 min). Urine was collected from the bladder. Tissues collected included kidney, liver, spleen, femur, muscle, heart, lung, intestine and brain. Tissues were weighed and counted on a gamma counter and the counts were converted to % injected dose/gram (% ID/g). Tables 4-6 show the biodistibution data of ^67Ga(dedpa)^+, ^67Ga(66)^+ and ^67Ga(69)^+, respectively, in female ICR mice. FIG. 4 illustrates biodistribution over 4 h of ^67Ga(dedpa)^+ in female ICR mice, and FIG. 5 illustrates biodistribution of ^67Ga(66)^+ (upper) and ^67Ga(69)^+ (lower) in female ICR mice over 4 h; complete data for urine are shown also in separate diagrams to the right.

[3] = Solution thermodynamics: formation constants (log KML) and pM of Ga(III) complexes, potentiometric titration; format: physicochemical; conditions: Ga(III) complex; ligand-ligand competition with EDTA, potentiometric titration, 25 °C, 0.16 M NaCl
Method: A more relevant indicator of the extent to which a metal complex is formed in solution is given by pM (−log free M) which considers the influence of ligand basicity and chelate hydrolysis.
Carbonate-free solutions of the titrant, NaOH, were prepared by dilution of 50% solution (Acros Organics) with freshly boiled MQ water under a stream of purified nitrogen gas. The solution was standardized with potassium acid phthalate and the extent of carbonate accumulation was periodically checked by titration with a standard hydrochloric acid solution and determination of the corresponding Gran titration plot.^47 Gallium ion solutions were prepared by dilution of the appropriate atomic absorption (AA) standard. The exact amount of acid present in the gallium standard was determined by titration of an equimolar solution of Ga and Na2H2EDTA. The amount of acid present was determined by Gran's method.^47
Data were collected in triplicate using PC Control (Version 6.0.91, Metrohm). The titration apparatus consisted of a 10 mL water jacketed glass vessel maintained at 25.0±0.1° C. (Julabo waterbath). Prior to and during the course of the titration, a blanket of nitrogen, passed through 10% NaOH to exclude any CO2, was maintained over the sample solution. The ionic strength was maintained at 0.16 M using NaCl. Prior to each potentiometric equilibrium study, the electrode was calibrated using standard HCl solutions. Calibration data were analysed by standard computer treatment provided within the program MacCalib to obtain the calibration parameters E0 and pKw.
As the degree of formation of Ga(III) complexes at low pH (<2) was too high for the determination of stability constants by use of direct potentiometry, the ligand-ligand competition method using Na2H2EDTA was also performed.

human apo-transferrin = human apo-transferrin (Homo sapiens, UniProt P02787); experiment: ^67Ga complex stability: 2-h competition with excess human apo-transferrin, HPLC; conditions: ^67Ga complex, up to 2 h
human apo-transferrin, sequence (P02787 20-698): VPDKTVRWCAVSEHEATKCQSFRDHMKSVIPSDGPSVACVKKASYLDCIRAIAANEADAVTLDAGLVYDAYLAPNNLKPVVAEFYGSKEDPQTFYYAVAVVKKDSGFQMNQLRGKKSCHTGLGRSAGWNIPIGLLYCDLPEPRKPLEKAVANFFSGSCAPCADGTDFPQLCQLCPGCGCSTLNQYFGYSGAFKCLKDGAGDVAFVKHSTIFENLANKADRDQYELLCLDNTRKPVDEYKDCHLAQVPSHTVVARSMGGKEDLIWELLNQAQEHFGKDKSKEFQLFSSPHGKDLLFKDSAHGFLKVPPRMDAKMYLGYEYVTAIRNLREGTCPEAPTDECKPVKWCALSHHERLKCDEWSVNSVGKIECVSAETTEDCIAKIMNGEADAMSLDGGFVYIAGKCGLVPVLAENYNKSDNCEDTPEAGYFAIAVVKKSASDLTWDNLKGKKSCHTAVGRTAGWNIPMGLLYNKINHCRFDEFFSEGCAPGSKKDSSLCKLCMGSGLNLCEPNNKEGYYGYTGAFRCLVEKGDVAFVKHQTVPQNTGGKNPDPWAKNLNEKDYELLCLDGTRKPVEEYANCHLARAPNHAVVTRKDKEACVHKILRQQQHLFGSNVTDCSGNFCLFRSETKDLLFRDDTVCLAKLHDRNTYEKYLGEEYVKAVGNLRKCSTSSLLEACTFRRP
Method: FIG. 13 illustrates stacked labelling traces of ^67Ga(dedpa)^+ of 2 h stability experiment against apo-transferrin (gradient: A: NaOAc buffer, pH 4.5, B: MeOH. 0-100% B linear gradient 20 min).

O=C(O)c1cccc(CNCCNCc2cccc(C(=O)O)n2)n1 [^67Ga(dedpa)^+, metal not drawn]
Serum stability in vitro (in words) [1]: stable to transchelation by serum proteins | Biodistribution, Brain, 30 min ([2]; Brain, 30 min after i.v. injection, mean ± SD, 4 animals): 0.264 ± 0.132 % ID/g | Biodistribution, Brain, 1 h ([2]; Brain, 1 h after i.v. injection, mean ± SD, 4 animals): 0.246 ± 0.123 % ID/g | Biodistribution, Brain, 2 h ([2]; Brain, 2 h after i.v. injection, mean ± SD, 4 animals): 0.213 ± 0.106 % ID/g | Biodistribution, Brain, 4 h ([2]; Brain, 4 h after i.v. injection, mean ± SD, 4 animals): 0.139 ± 0.069 % ID/g | Biodistribution, Femur, 30 min ([2]; Femur, 30 min after i.v. injection, mean ± SD, 4 animals): 2.180 ± 1.090 % ID/g | Biodistribution, Femur, 1 h ([2]; Femur, 1 h after i.v. injection, mean ± SD, 4 animals): 2.136 ± 1.068 % ID/g | Biodistribution, Femur, 2 h ([2]; Femur, 2 h after i.v. injection, mean ± SD, 4 animals): 1.893 ± 0.946 % ID/g | Biodistribution, Femur, 4 h ([2]; Femur, 4 h after i.v. injection, mean ± SD, 4 animals): 2.218 ± 1.109 % ID/g | Biodistribution, Heart, 30 min ([2]; Heart, 30 min after i.v. injection, mean ± SD, 4 animals): 2.645 ± 1.323 % ID/g | Biodistribution, Heart, 1 h ([2]; Heart, 1 h after i.v. injection, mean ± SD, 4 animals): 2.490 ± 1.245 % ID/g | Biodistribution, Heart, 2 h ([2]; Heart, 2 h after i.v. injection, mean ± SD, 4 animals): 2.412 ± 1.206 % ID/g | Biodistribution, Heart, 4 h ([2]; Heart, 4 h after i.v. injection, mean ± SD, 4 animals): 2.004 ± 1.002 % ID/g | Biodistribution, Intestine, 30 min ([2]; Intestine, 30 min after i.v. injection, mean ± SD, 4 animals): 2.099 ± 1.050 % ID/g | Biodistribution, Intestine, 1 h ([2]; Intestine, 1 h after i.v. injection, mean ± SD, 4 animals): 2.123 ± 1.062 % ID/g | Biodistribution, Intestine, 2 h ([2]; Intestine, 2 h after i.v. injection, mean ± SD, 4 animals): 1.995 ± 0.998 % ID/g | Biodistribution, Intestine, 4 h ([2]; Intestine, 4 h after i.v. injection, mean ± SD, 4 animals): 1.990 ± 0.995 % ID/g | Biodistribution, Kidney, 30 min ([2]; Kidney, 30 min after i.v. injection, mean ± SD, 4 animals): 8.089 ± 4.009 % ID/g | Biodistribution, Kidney, 1 h ([2]; Kidney, 1 h after i.v. injection, mean ± SD, 4 animals): 7.827 ± 3.914 % ID/g | Biodistribution, Kidney, 2 h ([2]; Kidney, 2 h after i.v. injection, mean ± SD, 4 animals): 9.149 ± 4.575 % ID/g | Biodistribution, Kidney, 4 h ([2]; Kidney, 4 h after i.v. injection, mean ± SD, 4 animals): 8.301 ± 4.150 % ID/g | Biodistribution, Liver, 30 min ([2]; Liver, 30 min after i.v. injection, mean ± SD, 4 animals): 3.702 ± 1.851 % ID/g | Biodistribution, Liver, 1 h ([2]; Liver, 1 h after i.v. injection, mean ± SD, 4 animals): 3.695 ± 1.847 % ID/g | Biodistribution, Liver, 2 h ([2]; Liver, 2 h after i.v. injection, mean ± SD, 4 animals): 3.173 ± 1.586 % ID/g | Biodistribution, Liver, 4 h ([2]; Liver, 4 h after i.v. injection, mean ± SD, 4 animals): 2.736 ± 1.368 % ID/g | Biodistribution, Lung, 30 min ([2]; Lung, 30 min after i.v. injection, mean ± SD, 4 animals): 4.878 ± 2.439 % ID/g | Biodistribution, Lung, 1 h ([2]; Lung, 1 h after i.v. injection, mean ± SD, 4 animals): 4.896 ± 2.448 % ID/g | Biodistribution, Lung, 2 h ([2]; Lung, 2 h after i.v. injection, mean ± SD, 4 animals): 4.846 ± 2.423 % ID/g | Biodistribution, Lung, 4 h ([2]; Lung, 4 h after i.v. injection, mean ± SD, 4 animals): 3.260 ± 1.630 % ID/g | Biodistribution, Muscle, 30 min ([2]; Muscle, 30 min after i.v. injection, mean ± SD, 4 animals): 1.210 ± 0.605 % ID/g | Biodistribution, Muscle, 1 h ([2]; Muscle, 1 h after i.v. injection, mean ± SD, 4 animals): 1.153 ± 0.576 % ID/g | Biodistribution, Muscle, 2 h ([2]; Muscle, 2 h after i.v. injection, mean ± SD, 4 animals): 1.092 ± 0.546 % ID/g | Biodistribution, Muscle, 4 h ([2]; Muscle, 4 h after i.v. injection, mean ± SD, 4 animals): 1.127 ± 0.564 % ID/g | Biodistribution, Serum, 30 min ([2]; Serum, 30 min after i.v. injection, mean ± SD, 4 animals): 16.067 ± 8.033 % ID/g | Biodistribution, Serum, 1 h ([2]; Serum, 1 h after i.v. injection, mean ± SD, 4 animals): 9.047 ± 4.524 % ID/g | Biodistribution, Serum, 2 h ([2]; Serum, 2 h after i.v. injection, mean ± SD, 4 animals): 12.042 ± 6.021 % ID/g | Biodistribution, Serum, 4 h ([2]; Serum, 4 h after i.v. injection, mean ± SD, 4 animals): 12.235 ± 6.118 % ID/g | Biodistribution, Spleen, 30 min ([2]; Spleen, 30 min after i.v. injection, mean ± SD, 4 animals): 1.366 ± 0.683 % ID/g | Biodistribution, Spleen, 1 h ([2]; Spleen, 1 h after i.v. injection, mean ± SD, 4 animals): 1.357 ± 0.679 % ID/g | Biodistribution, Spleen, 2 h ([2]; Spleen, 2 h after i.v. injection, mean ± SD, 4 animals): 1.273 ± 0.637 % ID/g | Biodistribution, Spleen, 4 h ([2]; Spleen, 4 h after i.v. injection, mean ± SD, 4 animals): 0.989 ± 0.495 % ID/g | Excretion route (in words) ([2]; mice, i.v.): excreted mainly through the kidneys | Time to clearance from background tissue, such as muscle ([2]; mice, i.v.): ≤ 30 min | Bone uptake (in words) ([2]; mice, i.v., indicator for complex stability): low uptake in bone | log KML [3]: 28.11(8) | Complex stability against apo-transferrin (in words) (human apo-transferrin; listed as 67/68Ga(dedpa)^+): No decomposition was detected | Complex stability against apo-transferrin (in words) (human apo-transferrin; listed as 67Ga(dedpa)^+): fully intact | Complex stability against apo-transferrin (in words) (human apo-transferrin; listed as Ga(dedpa)^+): no decomposition was detected
